Assay results: article PMC5242521 (PLoS ONE, 2017)
Where two headings read alike, the source gives them in different places.

What was measured:
Type in all cases: cell-based
MATE1 = biological target: T1, MATE1 (Homo sapiens, UniProt Q96FL8); experiment: MATE1 activity: TEA accumulation in HEK-MATE1 cells; details: for inhibition at 100 μM: human, pH 8.4
T1 construct: host or cells: HEK293
T1 sequence (Q96FL8 1-570): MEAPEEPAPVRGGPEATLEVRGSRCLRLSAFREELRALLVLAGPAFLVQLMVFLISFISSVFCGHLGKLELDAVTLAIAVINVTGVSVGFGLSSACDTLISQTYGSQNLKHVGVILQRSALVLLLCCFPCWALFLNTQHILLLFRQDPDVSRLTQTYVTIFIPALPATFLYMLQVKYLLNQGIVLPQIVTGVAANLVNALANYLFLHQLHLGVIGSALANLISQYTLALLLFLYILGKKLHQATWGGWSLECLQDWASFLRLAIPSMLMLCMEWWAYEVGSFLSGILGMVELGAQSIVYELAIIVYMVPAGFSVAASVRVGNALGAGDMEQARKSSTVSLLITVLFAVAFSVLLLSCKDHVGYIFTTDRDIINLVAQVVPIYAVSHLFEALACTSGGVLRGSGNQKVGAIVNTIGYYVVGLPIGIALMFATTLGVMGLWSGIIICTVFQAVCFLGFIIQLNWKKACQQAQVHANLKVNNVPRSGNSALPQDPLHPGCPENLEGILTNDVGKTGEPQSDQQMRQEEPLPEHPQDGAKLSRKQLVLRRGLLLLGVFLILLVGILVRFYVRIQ
Experimental: The initial tested concentration of pyrethroids was 100 μM.

OCT1 [1] = biological target: T2, OCT1 (Homo sapiens, UniProt O15245); experiment: Dopamine accumulation in OCT1-transfected HEK293 cells
T2 sequence (O15245 1-554): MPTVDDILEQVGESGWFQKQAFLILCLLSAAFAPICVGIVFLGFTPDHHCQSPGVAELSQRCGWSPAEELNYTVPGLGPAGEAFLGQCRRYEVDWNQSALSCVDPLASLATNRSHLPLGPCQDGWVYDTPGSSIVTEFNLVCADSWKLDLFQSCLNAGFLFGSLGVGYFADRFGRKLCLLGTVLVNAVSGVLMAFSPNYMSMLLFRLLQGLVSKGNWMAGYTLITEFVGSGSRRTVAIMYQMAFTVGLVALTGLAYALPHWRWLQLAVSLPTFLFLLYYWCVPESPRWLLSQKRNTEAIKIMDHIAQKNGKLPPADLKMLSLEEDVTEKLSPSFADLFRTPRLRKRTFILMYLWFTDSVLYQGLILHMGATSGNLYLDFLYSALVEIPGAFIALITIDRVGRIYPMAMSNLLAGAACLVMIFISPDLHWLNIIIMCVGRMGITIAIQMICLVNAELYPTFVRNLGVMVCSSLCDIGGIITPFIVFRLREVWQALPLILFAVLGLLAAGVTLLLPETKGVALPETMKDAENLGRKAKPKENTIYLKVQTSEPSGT
Experimental: HEK-MOCK and HEK-OCT1 cells were incubated with transport assay medium containing 11 nM 3,4-[Ring-2,5,6-^3H]-dopamine, in the absence or presence of the reference OCT1 inhibitor verapamil or of pyrethroids for 5 min at 37°C in the transport assay medium described above. After washing twice with PBS, cells were lysed in distilled water and intracellular accumulation of dopamine was finally measured by scintillation counting.
(A) HEK-OCT1 and HEK-MOCK cells were incubated with 11 nM 3,4-[Ring-2,5,6-^3H]-dopamine in the absence or presence of the reference OCT1 inhibitor verapamil (100 μM) for 5 min at 37°C. Intracellular accumulation of 3,4-[Ring-2,5,6-^3H]-dopamine was then determined by scintillation counting. […] Intracellular accumulation of 3,4-[Ring-2,5,6-^3H]-dopamine was then determined by scintillation counting. Data are expressed as percentages of OCT1-mediated transport of dopamine in control pyrethroid-unexposed cells, determined by subtracting accumulation of dopamine in HEK-MOCK cells from that in HEK-OCT1 cells in the absence of pyrethroids, arbitrarily set at 100% and indicated by a dotted line on the graph.

OCT1 [2] = biological target: T2, OCT1; experiment: Trans-stimulation assay of TEA uptake in OCT1-transfected HEK293 cells; details: pre-loading 60 min with 100 μM pyrethroid or 2 mM unlabeled TEA; HEK-OCT1 cells
Experimental: Trans-stimulation assays were performed as previously described. Briefly, OCT1-transfected HEK293 cells were first preloaded with 2 mM unlabeled TEA or 100 μM pyrethroid for 60 min at 37°c in the transport assay medium described above. After washing twice with PBS, cells were next re-incubated in transport assay medium containing 29 μM [1-^14C]-TEA for 5 min at 37°C. After washing twice with PBS, cells were lysed in distilled water and intracellular accumulation of [1-^14C]-TEA was then determined by scintillation counting.
Intracellular accumulation of TEA was then determined by scintillation counting. […] After washing, cells were next re-incubated with 29 μM [1-^14C]-TEA for 5 min at 37°C. Intracellular accumulation of [1-^14C]-TEA was then determined by scintillation counting.

Row | SMILES | IC50 (MATE1) [µM] | inhibition at 100 μM (MATE1; pyrethroid 100 μM, HEK-MATE1 cells, TEA, read-out: inhibition of MATE1 activity) [%] | effect on OCT1-mediated dopamine uptake (OCT1 [1]; pyrethroid 10 μM) | effect of pre-loading on radiolabeled TEA uptake (trans-stimulation assay) (OCT1 [2]) | inhibition at 100 μM (MATE1) [%] | effect on OCT1-mediated transport of dopamine (OCT1 [1]; pyrethroid 10, 100 or 300 μM, 11 nM dopamine, 5 min)
1 | CC(C)=CC1C(C(=O)OCN2C(=O)C3=C(CCCC3)C2=O)C1(C)C (centres unmarked) [tetramethrin] | 47.5 | > 79 | failed to significantly alter | trans-inhibition | – | –
2 | C=CCC1=C(C)C(OC(=O)C2C(C=C(C)C)C2(C)C)CC1=O (centres unmarked) [allethrin] | 50.2 | – | – | trans-inhibition | > 79 | significantly inhibit
